“And” between values parts separate entries of the source, which are not always exact repeats. Equal entries are not always repeated.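 In this assay, cells in 96-well plates receive the compound at five concentrations for 48 hours. Endpoints are linearly interpolated between the surrounding concentrations. Abbreviation: GI50, concentration required for 50% inhibition of growth. TGI marks complete inhibition of growth.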 Where a SMILES comes first, the peptide text is derived from it. [ ]: non-standard residue; d: D form. The star is where a group is joined. ξ: configuration not given here. NMeN = CN[C@@H](CC(N)=O)C(=O)O; NMeV = CN[C@H](C(=O)O)C(C)C; ξNMeV = CNC(C(=O)O)C(C)C; Boc = CC(C)(C)OC(=O)*; ξNMeA = CNC(C)C(=O)O
What was measured:
Assay in all cases: NCI tumour cell line growth inhibition, 48 h
A498 renal = test system: A498 renal
DU-145 prostate = test system: DU-145 prostate
HCC-2998 colon = test system: HCC-2998 colon
HCT-15 colon = test system: HCT-15 colon
IGROV1 ovarian = test system: IGROV1 ovarian
KM12 colon = test system: KM12 colon
LOX IMVI melanoma = test system: LOX IMVI melanoma
NCI-H23 lung = test system: NCI-H23 lung
SK-MEL-2 melanoma = test system: SK-MEL-2 melanoma
T-47D breast = test system: T-47D breast

Compound | TGI (A498 renal) [µM] | TGI (DU-145 prostate) [µM] | TGI (HCC-2998 colon) [µM] | TGI (HCT-15 colon) [µM] | TGI (IGROV1 ovarian) [µM] | TGI (KM12 colon) [µM] | TGI (LOX IMVI melanoma) | TGI (NCI-H23 lung) [µM] | TGI (SK-MEL-2 melanoma) [µM] | TGI (T-47D breast) [µM] | GI50 (A498 renal) [µM] | GI50 (HCC-2998 colon) [µM] | GI50 (IGROV1 ovarian) [µM] | GI50 (LOX IMVI melanoma) [µM] | GI50 (SK-MEL-2 melanoma) [µM] | GI50 (DU-145 prostate) [µM] | GI50 (HCT-15 colon) [µM] | GI50 (KM12 colon) | GI50 (NCI-H23 lung) | GI50 (T-47D breast) [µM]
COc1cc(C(c2cc3c(cc2O)OCO3)N2CCCCC2)cc(OC)c1OC (configuration not stated) | 35.5 | 35.6 | 39 | 30.8 | 32.4 | 34 | 28.4 µM | 31.8 | 32.9 | 47.8 |  |  |  |  |  |  |  |  |  | 
COC(=O)C(C)N(C)C(=O)[C@H](CC(N)=O)N(C)C(=O)[C@@H]1CCCN1C(=O)[C@H](C(C)C)N(C)C(=O)C(C(C)C)N(C)C(=O)[C@@H](NC(=O)OC(C)(C)C)C(C)C (some centres not stated) (Boc-V[ξNMeV][NMeV]P[NMeN][ξNMeA]-OMe) | > 100 | > 50 | > 100 | > 100 | > 100 | > 100 | 50 µM and 27 µM | > 50 | > 100 | > 50 | > 100 | > 100 | > 100 | 13.5 | > 100 |  |  |  |  | 
NC(=O)c1ccc2c(-c3ccnc(NCCCO)n3)c(-c3ccc(F)cc3)nn2c1 | > 25 | > 25 | > 25 | > 25 | > 25 | > 25 | > 25 µM | > 25 | > 25 | > 25 | 7.24 | > 25 | 12.9 | > 25 | > 25 | > 22.8 | > 25 | > 25 µM | > 25 µM | > 25
CCCN1CCN(c2ccc3nc(-c4ccc5nc(-c6cc(OC)ccc6OC)[nH]c5c4)[nH]c3c2)CC1 | 30.4 | 3.4 | 3.25 | 3.36 | 30.3 | 3.46 | 3.26 µM | 3.85 | 37.2 | 54.1 | 15.6 | 1.8 | 13.5 | 1.73 | 19.7 | 1.89 | 1.74 | 1.86 µM | 1.93 µM | 21.6
O=C(Nc1ccc(F)cc1F)c1cc(Br)ccc1O | 2.75 | > 100 | 29.9 | 17.3 | > 100 | 10.1 | 21.2 µM | 9.21 | 6.74 | 7.19 | 1.07 | 3.75 | 2.18 | 2.91 | 2.3 | 3.85 | 3.04 | 2.99 µM | 2.43 µM | 1.81
Cc1cc2cc3c(C)cc(=O)oc3c(C)c2o1 | > 100 | > 100 | > 100 | > 100 | > 100 | > 100 | > 100 µM | > 100 | > 100 | > 100 |  |  |  |  |  |  |  |  |  | 
O=C(CC12CC3CC(CC(C3)C1)C2)NCCOCCOCCOCCNC(=O)c1cc2c(o1)C(=O)c1ccccc1C2=O | 3.12 | 1.28 | 3.6 | 3.31 | 4.6 | 10.3 | 2.4 µM | 1.09 | 3.93 | 5.86 | 1.59 | 1.89 | 1.66 | 0.712 | 1.64 | 0.407 | 1.43 | 2.87 µM | 0.173 µM | 1.74
Cc1cccc(Cl)c1NC(=O)/C=C/c1ccccc1 | > 100 | > 100 | > 100 | > 100 | > 100 | > 100 | > 100 µM | > 100 | > 100 | > 100 |  |  |  |  |  |  |  |  |  | 
O=C1NC(=S)NC(=O)C1=Cc1cccc2cc3ccccc3cc12 | 3.63 | 3.63 | 3.89 | 4.07 | 3.61 | 4.08 | 4.49 µM | 4.62 | 4.1 | 3.86 |  |  |  |  |  |  |  |  |  | 
O=[N+]([O-])c1ccc(N=Nc2c(O)ccc3ccccc23)cc1 | > 100 | > 100 | > 100 | > 100 | > 100 | > 100 | > 100 µM | > 100 | > 100 | > 100 |  |  |  |  |  |  |  | 19.7 µM and > 100 µM | 42.9 µM and > 100 µM | 
CC(C)CNc1nc(-c2ccccc2)nc2ccccc12 | 29.5 | 28.2 | 29.8 | > 100 | > 100 | 26.4 | 28.3 µM | 34.5 | > 100 | > 100 | 15.1 | 15.9 | 27.4 | 14.7 | 29.6 | 14.8 | > 100 | 12.7 µM | 17 µM | 21.6
NC(=N\N=C/c1cccc([N+](=O)[O-])c1)/C(N)=N\N=C/c1cccc([N+](=O)[O-])c1 | > 100 | > 100 | > 100 | > 100 | > 100 | > 100 | > 100 µM | > 100 | > 100 | > 100 | > 100 | > 100 | > 100 | > 100 | > 100 | > 100 | > 100 | > 100 µM | > 100 µM | > 100
c1cc(OCCN2CCCCC2)ccc1CNc1ccc2nc(CCC3CCCCC3)[nH]c2c1 | 4.08 | 11.5 | 4.28 | 3.89 | 6.59 | 6.17 | 3.19 µM | 4.91 | 3.62 | 4.52 | 1.67 | 2.05 | 2.32 | 1.75 | 1.88 | 3.33 | 1.58 | 2.42 µM | 2.03 µM | 1.71
COc1ccc(CNc2c3ccccc3nc3ccc(OC)cc23)cc1 | 3.33 | 10.9 | 3.76 | 6.18 | 11.1 | 12.4 | 3.31 µM | 4.71 | 6.2 | 18.9 | 1.69 | 1.85 | 3.02 | 1.67 | 2.37 | 3.16 | 2.27 | 3.3 µM | 1.78 µM | 3.54
O=S(=O)(c1ccc(N=C2NN=C(c3c[nH]c4ccccc34)CS2)cc1)N1CCOCC1 | > 100 | > 100 | > 100 | > 100 | > 100 | > 100 | > 100 µM | > 100 | > 100 | 78.6 | 15.7 | 24.6 | > 100 | 11.2 | 6.22 | > 100 | 8.06 | 7.13 µM | 18.3 µM | 3.56
C=CCC(C(=O)O)c1ccccc1 (configuration not stated) | > 100 | > 100 | > 100 | > 100 | > 100 | > 100 | > 100 µM | > 100 | > 100 | > 100 |  |  |  |  |  |  |  |  |  | 
Cn1nc(-c2ccccc2)nc1[N+](=O)[O-] | > 10 | > 10 | > 10 | > 10 | > 10 | > 10 | > 10 µM | > 10 | > 10 | > 10 |  |  |  |  |  |  |  |  |  | 
COc1cc2cc(C(=O)Nc3cc(N)c4ccccc4c3CCCl)[nH]c2c(OC)c1OC | 0.19 | 0.339 | 0.034 |  | 3.51 | 0.667 | 1.53 µM | 0.264 | 0.174 | 0.237 | 0.0271 | 0.00922 | 0.0146 | 0.0301 | 0.0895 | 0.00895 | 0.0382 | 0.0411 µM | 0.0166 µM | 0.0372
COC(=O)c1c2c(c(C)[n+]([O-])c1C)C(=O)C=C(NCc1ccc(OC)cc1)C2=O | 6.21 | 5.89 | 4.78 | 4.19 | 3.59 | 6.63 | 3.77 µM | 4.35 | 6.64 | 4.18 | 1.59 | 1.54 | 1.06 | 0.911 | 2.14 | 2.32 | 0.962 | 1.67 µM | 1.36 µM | 0.994
C=CCN1C=CC(=O)[C@H](O[Si](C)(C)C(C)(C)C)[C@@H]1/C=C/c1ccccc1 | 26.1 | 30.1 | 30.3 | 25.6 | 34 | 28.7 | 26.4 µM | 27.9 | 34.2 | 17 | 13.2 | 16.2 | 17.1 | 13.1 | 17 | 15.7 | 12.5 | 13.1 µM | 13.8 µM | 4.04
COc1ccc(-c2nc3ncccn3c2/C=C/C(=O)c2cc(OC)c(OC)c(OC)c2)cc1 | 6.28 | 9.48 | 2.92 | 3.94 | 6.29 | 3.04 | 3 µM | 3.37 | 4.69 | 14.9 | 2.13 | 1.58 | 2.2 | 1.46 | 1.87 | 2.55 | 1.38 | 1.61 µM | 1.35 µM | 2.53
CC1(C)CC(n2cnc(-c3ccc(F)cc3)c2-c2ccnc(N)n2)CC(C)(C)N1 | > 25 | > 25 | > 25 | > 25 | > 25 | > 25 | > 25 µM | > 25 | > 25 | > 25 | > 25 | > 25 | 24.7 | > 19.7 | > 25 | > 25 | 17.7 | 18.1 µM | > 25 µM | 24.3
CCN=c1cc2sc3cc(NCC)c(C)cc3nc-2cc1C | 53.4 | 4.16 | 11.8 | 9.51 | 9.21 | 11 | 4.28 µM | 3.69 | 4.64 | 10.5 | 14 | 3.5 | 2.4 | 0.746 | 1.82 | 1.97 | 0.489 | 0.654 µM | 0.437 µM | 0.58
C=CCN(CC=C)C(=O)c1cc(C)nc2c1c(=O)n(-c1ccccc1)c(=O)n2CC(O)CN1CCN(c2ncccn2)CC1 (configuration not stated) | > 100 | > 100 | > 100 | > 100 | > 100 | > 100 | > 100 µM | > 100 | > 100 | > 100 | > 100 | > 100 | > 100 | > 100 | > 100 | > 100 | > 100 | > 100 µM | > 100 µM | > 100
c1ccc2c(c1)-c1ccccc1C2N1CC2CCC(CC2)C1 | 40.1 | 92 | 31.4 | 40 | 69.8 | 39.9 | 40.5 µM | 47.5 | 30.7 | 43.3 |  |  |  |  |  |  |  |  |  | 
COc1cc2c(Oc3ccc4[nH]c(C)cc4c3F)ccnc2cc1OCC1(N)CC1 | 19.7 | > 100 | 11.8 | 13.5 | 13 | 12.5 | 3.2 µM |  | 3.79 | 28.5 | 2.2 | 2.36 | 1.16 | 1.26 | 1.68 | 3.67 | 0.854 | 1.24 µM |  | 3.64
COc1cc2c(cc1OCCCCCCN1CCN(c3ncnc4ccccc34)CC1)N=CC1CCCN1C2=O (configuration not stated) | 0.344 | 0.548 | 0.52 | 2.39 | 0.209 | 0.375 | 1 µM | 0.677 | 1.83 | 0.0792 | 0.15 | 0.191 | 0.0602 | 0.0319 | 0.195 | 0.12 | 0.493 | 0.116 µM | 0.204 µM | 0.0237
COc1ccc2c(CN3CCC[C@H]3C(=O)O)cc3cc4c(cc3c2c1)OCO4 | 26.4 | > 100 | 33.7 | > 100 | > 100 | 41.8 | 43.6 µM |  | 29.8 | > 100 | 11.1 | 14.5 | 25.4 | 5.06 | 12.6 | 19.7 | 19.1 | 12 µM |  | 20
